Data on 1 molecule can be found in article PMC12881674, “Activation of TRPV3 channels in bladder cancer cells stimulates ATP release” (Molecular Pharmacology, 2025).

The target of the test is T1, TRPV3 in KU-19-19 cells (Homo sapiens, UniProt Q8NET8).
T1 construct: host or cells: KU-19-19
T1 sequence (Q8NET8 1-790): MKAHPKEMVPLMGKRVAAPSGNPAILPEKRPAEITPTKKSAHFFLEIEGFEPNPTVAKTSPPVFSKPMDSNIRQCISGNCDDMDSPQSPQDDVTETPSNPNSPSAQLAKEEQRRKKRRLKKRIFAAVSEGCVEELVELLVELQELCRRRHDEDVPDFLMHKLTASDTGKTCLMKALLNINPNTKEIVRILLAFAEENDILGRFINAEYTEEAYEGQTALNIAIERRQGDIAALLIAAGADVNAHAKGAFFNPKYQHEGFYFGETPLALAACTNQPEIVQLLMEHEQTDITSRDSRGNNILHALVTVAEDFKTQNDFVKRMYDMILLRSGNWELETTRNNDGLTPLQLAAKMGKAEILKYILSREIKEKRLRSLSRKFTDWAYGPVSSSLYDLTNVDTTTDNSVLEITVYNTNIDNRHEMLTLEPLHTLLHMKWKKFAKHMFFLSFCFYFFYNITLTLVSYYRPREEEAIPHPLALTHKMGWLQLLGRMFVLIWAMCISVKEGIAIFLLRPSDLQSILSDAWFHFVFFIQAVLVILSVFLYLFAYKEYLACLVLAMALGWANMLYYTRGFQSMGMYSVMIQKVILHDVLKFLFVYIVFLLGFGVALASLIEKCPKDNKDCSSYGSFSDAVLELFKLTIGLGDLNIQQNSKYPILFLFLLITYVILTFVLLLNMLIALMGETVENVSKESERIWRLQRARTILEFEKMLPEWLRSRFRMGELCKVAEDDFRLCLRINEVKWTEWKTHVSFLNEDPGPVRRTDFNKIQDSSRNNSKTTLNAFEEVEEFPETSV
The experiment in a line: fura-2 Ca2+ assay in KU-19-19 bladder cancer cells. It is filed as cell-based. To be noted: 50 μM AV3-1. The method, then: All fluorometric Ca^2+ assays were performed in HBS buffer at room temperature. The compounds of the Enamine Diversity Set were diluted in a buffer composed of 150 mM NaCl and 20 mM HEPES and added to the cells at a final concentration of 25 μM (0.5% DMSO). For the primary compound screening and the generation of concentration-response analyses, a robotic liquid handling station (Freedom Evo 150; Tecan) with a built-in custom-made fluorescence plate imager was used. HEKTRPV3 and bladder cancer cell lines were harvested and loaded with 4 μM fluo-4/AM (Invitrogen; Fisher Scientific) in cell culture medium for 30 minutes at 37 °C. […] Fluorescence was excited using a 470-nm light-emitting diode, and emitted light was imaged through a 515-nm–long pass filter with a cooled Zyla 5.5 camera (Andor). Fluorescence was recorded and processed under the control of the μ-Manager 2.0 gamma software (https://micro-manager.org.[28]). After recording baseline fluorescence, compounds were dispensed into the wells via the liquid handling device. […] For further analysis, fluorescence signals were calculated for each well, corrected for background intensities and normalized to the initial signals. […] Fluorescence signals were excited with a fiber-coupled monochromator device (Polychrome V; Till Photonics) at 340, 358, and 380 nm and calibrated as described before.[29] […]

Each structure is given as a SMILES string.

As for `COC(=O)C12CN(Cc3ccccc3)CC1(C(=O)OC)CN(Cc1ccccc1)C2` (stereo not shown) [AV3-1], the “[Ca2+]i response in KU-19-19 cells” value was “robust increases in [Ca^2+]i”.
